Experimental data: patent publication US20090170846A1, “INHIBITORS OF THE HIV INTEGRASE ENZYME” (Pfizer Inc, priority 2005, published 2009)
pEC50, pIC50: −log10 of the molar value. Read-outs that look alike come from different tables or passages of the source.

Assays:
[1] = tested on: RF strain of HIV-1 in CEM-SS cells; assay: HIV-1 cell protection assay (XTT dye reduction); assay type: cell-based
Experimental: HIV-1 Cell Protection Assay
The antiviral activities of potential modulator compounds (test compounds) were determined in HIV-1 cell protection assays using the RF strain of HIV-1, CEM-SS cells, and the XTT dye reduction method (Weislow, O, S. et al., J. Natl. Cancer Inst 81: 577-586 (1989)). Subject cells were infected with HIV-1 RF virus at an moi of to affect about a 90% kill (for example, an moi in the range of from about 0.025 to about 0.819) or mock infected with medium only and added at 2×10^4 cells per well, with the addition of approximately 200 μL of medium, into 96 well plates containing half-log dilutions of test compounds. Six days later, 50 μl of XTT solution (1 mg/ml XTT tetrazolium and 20 nM phenazine methosulfate) were added to the wells and the plates were reincubated for four hours. Viability, as determined by the amount of XTT formazan produced, was quantified spectrophotometrically by absorbance at 450 nm.
Data from CPE assays were expressed as the percent of formazan produced in compound-treated cells compared to formazan produced in wells of uninfected, compound-free cells. The fifty percent effective concentration (EC50) was calculated as the concentration of compound that affected an increase in the percentage of formazan production in infected, compound-treated cells to 50% of that produced by uninfected, compound-free cells. The 50% cytotoxicity concentration (CC50) was calculated as the concentration of compound that decreased the percentage of formazan produced in uninfected, compound-treated cells to 50% of that produced in uninfected, compound-free cells. The therapeutic index was calculated by dividing the cytotoxicity (CC50) by the antiviral activity (EC50).

[2] = molecular target: T1, Full-length wild type HIV-1 integrase (SF1) (Human immunodeficiency virus type 1 group M subtype B, UniProt P04585); assay: Integrase strand-transfer scintillation proximity assay; assay type: biochemical
T1 construct: made in house; host or cells: E. coli BL21 (DE3)
Text: Integrase Strand-Transfer Scintillation Proximity Assay
Oligonucleotides: Oligonucleotide #1-5′-(biotin)[…]-3′ (SEQ ID NO: 1) and oligonucleotide #2-5′-[…]-3′ (SEQ ID NO: 2), were synthesized by TriLink BioTechnologies, Inc. (San Diego, Calif.). The annealed product represents preprocessed viral ds-DNA derived from the LTR U5 sequence of the viral genome. A ds-DNA control to test for non-specific interactions was made using a 3′ di-deoxy derivative of oligonucleotide #1 annealed to oligonucleotide #2. The CA overhang at the 5′ end of the non-biotinylated strand of the ds-DNA was created artificially by using a complimentary DNA oligonucleotide shortened by 2 base pairs. This configuration eliminates the requisite 3′ processing step of the integrase enzyme prior to the strand-transfer mechanism.
Host ds-DNA was prepared as an unlabeled and [^3H]-thymidine labeled product from annealed oligonucleotide #3-5-[…]-3′ (SEQ ID NO: 3), and oligonucleotide #4-1-5′-[…]-3′ (SEQ ID NO: 4), both synthesized by TriLink BioTechnologies, Inc. (San Diego, Calif.). The annealed product had overhanging 3′ ends of poly(dA). Host DNA was custom radiolabeled by PerkinElmer Life Sciences Inc. (Boston, Mass.) using an enzymatic method with a 12/1 ratio of [methyl-^3H]dTTP/cold ds-DNA to yield 5′-blunt end ds-DNA with a specific activity of >900 Ci/mmol. The radiolabeled product was purified using a NENSORB cartridge and stored in stabilized aqueous solution (PerkinElmer). The final radiolabeled product had six [^3H]-thymidine nucleotides at both 5′ ends of the host ds-DNA.
Reagents: Streptavidin-coated polyvinyltoluene (PVT) SPA beads were purchased from Amersham Biosciences (Piscataway, N.J.). Cesium chloride was purchased from Shelton Scientific, Inc. (Shelton, Conn.). White, polystyrene, flat-bottom, non-binding surface, 96-well plates were purchased from Corning. All other buffer components were purchased from Sigma (St. Louis, Mo.) unless otherwise indicated.
Enzyme Construction Full-length wild type HIV-1 integrase (SF1) sequence (amino acids 1-289) was constructed in a pET24a vector (Novagen, Madison, Wis.). The construct was confirmed through DNA sequencing.
Enzyme Purification Full length wild-type HIV Integrase was expressed in E. coli BL21 (DE3) cells and induced with 1 mM isopropyl-1 thio-β-D-galactopyranoside (IPTG) when cells reached an optical density between 0.8-1.0 at 600 nm. Cells were lysed by microfluidation in 50 mM HEPES pH 7.0, 75 mM NaCl, 5 mM DTT, 1 mM 4-(2-Aminoethyl)benzenesulfonylfluoride HCl (AEBSF). Lysate was then centrifuged 20 minutes at 11 k rpm in GSA rotor in Sorvall RC-5B at 4° C. Supernant was discarded and pellet resuspended in 50 mM HEPES pH 7.0, 750 mM NaCl, 5 mM DTT, 1 mM AEBSF and homogenized in a 40 mL Dounce homogenizer for 20 minutes on ice. Homogenate was then centrifuged 20 minutes at 11 k rpm in SS34 rotor in Sorvall RC-5B at 4° C. Supernant was discarded and pellet resuspended in 50 mM HEPES pH 7.0, 750 mM NaCl, 25 mM CHAPS, 5 mM DTT, 1 mM AEBSF. Preparation was then centrifuged 20 minutes at 11 k rpm in SS34 rotor in Sorvall RC-5B at 4° C.
Supernant was then diluted 1:1 with 50 mM HEPES pH 7.0, 25 mM CHAPS, 1 mM DTT, 1 mM AEBSF and loaded onto a Q-Sepharose column pre-equilibrated with 50 mM HEPES, pH 7.0, 375 mM NaCl, 25 mM CHAPS, 1 mM DTT, 1 mM AEBSF. The flow through peak was collected and NaCl diluted to 0.1 M with 50 mM HEPES pH 7.0, 25 mM CHAPS, 1 mM DTT, 0.5 mM AEBSF and loaded onto a SP-Sepharose column pre-equilibrated with 50 mM HEPES pH 7.0, 100 mM NaCl, 25 mM CHAPS, 1 mM DTT, 0.5 mM AEBSF. After washing the column with the equilibration buffer, a 100 to 400 mM NaCl gradient was run. The eluted integrase was concentrated and run on a S-300 gel diffusion column using 50 mM HEPES pH 7.0, 500 mM NaCl, 25 mM CHAPS, 1 mM DTT, 0.5 mM AEBSF. The peak from this column was concentrated to 0.76 mg/mL and stored at −70° C. and later used for strand transfer assays. […]

[3] = Human immunodeficiency virus 1, CEM-SS, 144 h
[4] = integrase strand-transfer SPA, read-out: IC50
[5] = Human immunodeficiency virus 1, 144 h, HIV-1 RF, CEM-SS cells, XTT, six days, read-out: EC50

Structure (SMILES) | pEC50 [1, 3] | pIC50 [2, 4] | pEC50 [1, 5] | pIC50 [2]
CONC(=O)c1cc2c(C(=O)NC(C)C)cn(Cc3ccc(F)cc3)c2cn1 [Example 47, 1-(4-fluorobenzyl)-N3-isopropyl-N5-methoxy-1H-pyrrolo[2,3-c]pyridine-3,5-dicarboxamide] | 7.49 | 6.60 | – | –
CCN1CCCC1CNC(=O)c1cn(Cc2ccc(F)cc2)c2cnc(C(=O)NOC)cc12 (stereo not shown) [Example 8, N3~-[(1-ethylpyrrolidin-2-yl)methyl]-1-(4-fluorobenzyl)-N~5~- methoxy-1H-pyrrolo[2,3-c]pyridine-3,5-dicarboxamide] | 6.15 | 5.85 | – | –
CN(C)S(=O)(=O)c1cn(Cc2ccc(F)cc2)c2cnc(C(=O)NO)cc12 [Example 34] | – | 6.87 | 7.33 | –
CN(O)C(=O)c1cc2c(NS(C)(=O)=O)cn(Cc3ccc(F)cc3)c2cn1 [Example 6, 1-(4-fluorobenzyl)-N-hydroxy-N-methyl-3-[(methylsulfonyl)amino]-1H-pyrrolo[2,3-c]pyridine-5-carboxamide] | – | 6.57 | 7.52 | –
CN(O)C(=O)c1cc2c(S(=O)(=O)N3CCOCC3)cn(Cc3ccc(F)cc3)c2cn1 [Example 57, 1-(4-fluorobenzyl)-N-hydroxy-N-methyl-3-(morpholin-4-ylsulfonyl)-1H-pyrrolo[2,3-c]pyridine-5-carboxamide] | – | – | 6.32 | –
CN(O)C(=O)c1cc2c(C(=O)NCC(F)F)cn(Cc3ccc(F)cc3)c2cn1 [Example 45, N3-(2,2-difluoroethyl)-1-(4-fluorobenzyl)-N5-hydroxy-N5-methyl-1H-pyrrolo[2,3-c]pyridine-3,5-dicarboxamide] | 7.41 | 6.61 | – | –
CCN1CCCC1CNC(=O)c1cn(Cc2ccc(F)cc2)c2cnc(C(=O)NO)cc12 (stereo not shown) [Example 31, N~3~-[(1-ethylpyrrolidin-2-yl)methyl]-1-(4-fluorobenzyl)-N~5~- hydroxy-1H-pryyolo[2,3-c]pyridine-3,5-dicarboxamide] | 6.70 | 6.85 | – | –
O=C(NO)c1cc2c(C(=O)NCC34CCCN3CCC4)cn(Cc3ccc(F)cc3)c2cn1 [Example 25, 1-(4-fluorobenzyl)-N~5~- hydroxy-N~3~-(tetrahydro-1H-pyrrolizin-7a(5H)-ylmethyl)-1H-pyrrolo[2,3-c]pyridine-3,5-dicarboxamide] | 6.60 | 6.82 | – | –
CN(O)C(=O)c1cc2c(S(=O)(=O)N(C)CC3COCCO3)cn(Cc3ccc(F)cc3)c2cn1 (stereo not shown) [Example 56, 3-{[(1,4-dioxan-2-ylmethyl)(methyl)amino]sulfonyl}-1-(4-fluorobenzyl)-N-hydroxy-N-methyl-1H-pyrrolo[2,3-c]pyridine-5-carboxamide] | – | – | 6.40 | –
CN(O)C(=O)c1cc2c(S(=O)(=O)N3CCNC(=O)C3)cn(Cc3ccc(F)cc3F)c2cn1 [Example 41, 1-(2,4-difluorobenzyl)-N-hydroxy-N-methyl-3-[(3-oxopiperazin-1-yl)sulfonyl]-1H-pyrrolo[2,3-c]pyridine-5-carboxamide] | – | – | 5.48 | 5.94
CONC(=O)c1cc2c(S(=O)(=O)NCCCO)cn(Cc3ccc(F)cc3)c2cn1 [Example 51, 1-(4-fluorobenzyl)-3-{[(3-hydroxypropyl)amino]sulfonyl}-N-methoxy-1H-pyrrolo[2,3-c]pyridine-5-carboxamide] | – | – | 6.96 | –
CCN(CC)S(=O)(=O)c1cn(Cc2ccc(F)cc2)c2cnc(C(=O)NOC)cc12 [Example 49, 3-[(diethylamino)sulfonyl]-1-(4-fluorobenzyl)-N-methoxy-1H-pyrrolo[2,3-c]pyridine-5-carboxamide] | – | – | 7.77 | –
Cc1c(CNC(=O)c2cn(Cc3ccc(F)cc3)c3cnc(C(=O)NO)cc23)cnn1C [Example 28, N~3~-[(1,5-dimethyl-1H-pyrazol-4-yl)methyl]-1-(4-fluorobenzyl)-N~5~- hydroxy-1H-pyrrolo[2,3-c]pyridine-3,5-dicarboxamide] | 7.00 | 7.34 | – | –
CC(=O)Nc1cn(Cc2ccc(F)cc2)c2cnc(C(=O)N(C)O)cc12 [Example 2, 3-(acetylamino)-1-(4-fluorobenzyl)-N-hydroxy-N-methyl-1H-pyrrolo[2,3-c]pyridine-5-carboxamide] | – | – | 7.70 | –
CONC(=O)c1cc2c(S(=O)(=O)N(C)CC3COCCO3)cn(Cc3ccc(F)cc3)c2cn1 (stereo not shown) [Example 54, 3-{[(1,4-dioxan-2-ylmethyl)(methyl)amino]sulfonyl}-1-(4-fluorobenzyl)-N-methoxy-1H-pyrrolo[2,3-c]pyridine-5-carboxamide] | – | – | 7.32 | –
CONC(=O)c1cc2c(S(=O)(=O)N3CCOCC3)cn(Cc3ccc(F)cc3)c2cn1 [Example 55, 1-(4-fluorobenzyl)-N-methoxy-3-(morpholin-4-ylsulfonyl)-1H-pyrrolo[2,3-c]pyridine-5-carboxamide] | – | – | 7.60 | –
CONC(=O)c1cc2c(S(=O)(=O)Nc3cccnc3OC)cn(Cc3ccc(F)cc3)c2cn1 [Example 52, 1-(4-fluorobenzyl)-N-methoxy-3-{[(2-methoxypyridin-3-yl)amino]sulfonyl}-1H-pyrrolo[2,3-c]pyridine-5-carboxamide] | – | – | 7.28 | –
CN(O)C(=O)c1cc2c(S(=O)(=O)NCCCO)cn(Cc3ccc(F)cc3)c2cn1 [Example 50, 1-(4-fluorobenzyl)-N-hydroxy-3-{[(3-hydroxypropyl)amino]sulfonyl}-N-methyl-1H-pyrrolo[2,3-c]pyridine-5-carboxamide] | – | – | 6.34 | –
COc1ncccc1NS(=O)(=O)c1cn(Cc2ccc(F)cc2)c2cnc(C(=O)N(C)O)cc12 [Example 53, 1-(4-fluorobenzyl)-N-hydroxy-3-{((2-methoxypyridin-3-yl)amino]sulfonyl}-N-methyl-1H-pyrrolo[2,3-c]pyridine-5-carboxamide] | – | – | 6.85 | –
